One test deals with T1, Human FXIa (Homo sapiens, UniProt P03951).
T1 construct: purchased Enzyme Research Laboratories
As to the kind of experiment: Determination of the % Inhibition for FXIa (IC50, fluorogenic substrate Z-Gly-Pro-Arg-AFC). It counts as biochemical. The settings on record: Selectivity, Human FXIa (Enzyme Research Laboratories), 25° C. As for the experimental part:
Determination of the % Inhibition for FXIa
FXIa inhibitory activity in vitro was determined using standard published methods (see e.g. Johansen et al., Int. J. Tiss. Reac. 1986, 8, 185; Shori et al., Biochem. Pharmacol., 1992, 43, 1209; Stürzebecher et al., Biol. Chem. Hoppe-Seyler, 1992, 373, 1025). Human FXIa (Enzyme Research Laboratories) was incubated at 25° C. with the fluorogenic substrate Z-Gly-Pro-Arg-AFC and various concentrations of the test compound. Residual enzyme activity (initial rate of reaction) was determined by measuring the change in fluorescence at 410 nm and the IC50 value for the test compound was determined.

The next test has as its target T2, Human Factor XIIa (Homo sapiens, UniProt P00748).
T2 construct: purchased Enzyme Research Laboratories
T2 sequence (P00748 373-615 limits assumed): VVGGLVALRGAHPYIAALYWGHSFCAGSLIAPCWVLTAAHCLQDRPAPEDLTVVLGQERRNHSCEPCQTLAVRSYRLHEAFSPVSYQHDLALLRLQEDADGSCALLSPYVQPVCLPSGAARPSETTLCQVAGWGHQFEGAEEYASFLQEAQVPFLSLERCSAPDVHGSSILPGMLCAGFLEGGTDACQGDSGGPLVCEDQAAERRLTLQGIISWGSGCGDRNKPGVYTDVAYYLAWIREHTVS
As to the kind of experiment: Determination of the % Inhibition for FXIIa (IC50, fluorogenic substrate H-DPro-Phe-Arg-AFC). It counts as biochemical. The note with it: Human Factor XIIa (Enzyme Research Laboratories), 25° C. As for the experimental part: Determination of the % Inhibition for FXIIa
Factor XIIa inhibitory activity in vitro was determined using standard published methods (see e.g. Shori et al., Biochem. Pharmacol., 1992,43, 1209; Baeriswyl et al., ACS Chem. Biol., 2015, 10 (8) 1861; Bouckaert et al., European Journal of Medicinal Chemistry 110 (2016) 181). Human Factor XIIa (Enzyme Research Laboratories) was incubated at 25° C. with the fluorogenic substrate H-DPro-Phe-Arg-AFC and various concentrations of the test compound. Residual enzyme activity (initial rate of reaction) was determined by measuring the change in […] at 410 nm and the IC50 value for the test compound was determined.

T1 sequence (P03951 388-625 limits assumed): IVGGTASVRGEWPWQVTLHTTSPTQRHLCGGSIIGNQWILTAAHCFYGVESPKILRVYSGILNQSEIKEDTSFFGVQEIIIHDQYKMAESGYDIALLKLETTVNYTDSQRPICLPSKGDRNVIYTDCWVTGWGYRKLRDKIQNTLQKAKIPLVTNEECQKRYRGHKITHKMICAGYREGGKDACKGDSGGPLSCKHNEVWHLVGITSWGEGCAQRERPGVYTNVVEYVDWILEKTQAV
T1 sequence (P03951 19-387 partner limits assumed): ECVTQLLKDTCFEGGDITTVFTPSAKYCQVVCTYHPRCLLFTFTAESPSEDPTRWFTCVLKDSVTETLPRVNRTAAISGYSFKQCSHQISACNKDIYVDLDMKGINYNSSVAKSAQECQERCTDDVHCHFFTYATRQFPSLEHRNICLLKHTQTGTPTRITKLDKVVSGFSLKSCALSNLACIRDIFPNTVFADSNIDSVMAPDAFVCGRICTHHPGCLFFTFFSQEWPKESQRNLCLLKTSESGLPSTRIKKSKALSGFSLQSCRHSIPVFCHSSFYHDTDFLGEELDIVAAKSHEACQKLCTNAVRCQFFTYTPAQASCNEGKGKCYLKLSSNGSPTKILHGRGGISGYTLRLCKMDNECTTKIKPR

With `CN1CCC(Oc2ccc(NCc3ccc4c(N)nccc4c3)nc2)CC1` [Example 18.01, 6-(((5-((1-Methylpiperidin-4-yl)oxy)pyridin-2-yl)amino)methyl)isoquinolin-1-amine], the IC50 (in general, the point on the concentration scale where inhibition reaches its midpoint) against Human FXIa was 36.4 µM; on Human Factor XIIa, 1 to 3 µM.

Compound `CN1CCC(Oc2cnc(NCc3ccc4c(N)nccc4c3)nc2)CC1` [Example 18.02, 6-[({5-[(1-Methylpiperidin-4-yl)oxy]pyrimidin-2-yl}amino)methyl]isoquinolin-1-amine] had an IC50 at Human Factor XIIa of 10 to 40 µM. Turning to `CN1CCC(OCc2ccc(NCc3ccc4c(N)nccc4c3)nc2)CC1` [Example 18.03, 6-(((5-(((1-Methylpiperidin-4-yl)oxy)methyl)pyridin-2-yl)amino)methyl)isoquinolin-1-amine], the IC50 against Human FXIa is above 40 µM; at Human Factor XIIa, below 1 µM. In the same order, the values of `CN1CCC(COc2ccc(NCc3ccc4c(N)nccc4c3)nc2)CC1` [Example 18.04, 6-(((5-((1-Methylpiperidin-4-yl)methoxy)pyridin-2-yl)amino)methyl)isoquinolin-1-amine] are above 40 µM and below 1 µM. On the same counts, the results for `CN1CCC(Oc2cnc(NCc3ccc4c(N)nccc4c3)cn2)CC1` [Example 18.05] are 19.9 µM and below 1 µM. On to `CN1CCC(Oc2ccc(NCc3ccc4c(N)nccc4c3)nn2)CC1` [Example 18.06], for which the IC50 on Human Factor XIIa lay within 1 to 3 µM.

For the compound `Nc1nccc2cc(CNc3ccc(OC4CCNCC4)cc3)ccc12` [Example 18.07], on Human Factor XIIa, the IC50 fell in the range of 1 to 3 µM. Turning to `CN1CCC(Oc2ccc(NCc3ccc4c(N)nccc4c3)cc2)CC1` [Example 18.08, 6-(((4-((1-Methylpiperidin-4-yl)oxy)phenyl)amino)methyl)isoquinolin-1-amine], the IC50 against Human FXIa is above 40 µM; against Human Factor XIIa, below 1 µM. As to `Nc1nccc2cc(CNc3ccc(OCCN4CCOCC4)cn3)ccc12` [Example 18.09, 6-(((5-(2-Morpholinoethoxy)pyridin-2-yl)amino)methyl)isoquinolin-1-amine], on Human Factor XIIa, the IC50 was 10 to 40 µM. For the compound `CN1CCC(COc2cnc(NCc3ccc4c(N)nccc4c3)cn2)CC1` [Example 18.10, 6-(((5-((1-Methylpiperidin-4-yl)methoxy)pyrazin-2-yl)amino)methyl)isoquinolin-1-amine], the IC50 against Human FXIa was 24.8 µM; against Human Factor XIIa, below 1 µM. `CN1CCC(COc2ccc(NCc3ccc4c(N)nccc4c3)cn2)CC1` [Example 18.11, 6-(((6-((1-Methylpiperidin-4-yl)methoxy)pyridin-3-yl)amino)methyl)isoquinolin-1-amine]: the IC50 against Human FXIa was 17.9 µM; at Human Factor XIIa, below 1 µM. The compound `CN1CCC(COc2ccc(NCc3ccc4c(N)nccc4c3)cn2)CC1` [Example 18.12] gave an IC50 against Human FXIa of 33.1 µM. The compound `CN1CCC(CNC(=O)c2ccc(NCc3ccc4c(N)nccc4c3)nc2)CC1` [Example 18.13] registered an IC50 on Human Factor XIIa of 3 to 10 µM.

Compound `CN1CCCC(COc2ccc(NCc3ccc4c(N)nccc4c3)nc2)C1` (stereo not shown) [Example 18.14] returned an IC50 against Human Factor XIIa of 1 to 3 µM.

Take `CN1CCC(COc2ccc(NCc3ccc4c(N)nccc4c3)cc2CO)CC1` [Example 18.15, (5-(((1-Aminoisoquinolin-6-yl)methyl)amino)-2-((1-methylpiperidin-4-yl)methoxy)phenyl)methanol]: the IC50 on Human Factor XIIa is below 1 µM. The same measure, in the same setting: with `CN1CCC(NC(=O)c2ccc(NCc3ccc4c(N)nccc4c3)nc2)CC1` [Example 18.16] the figure was 10 to 40 µM; with `CN1CCC(COc2ccc(NCc3ccc4c(N)nccc4c3)cc2CCO)CC1` [Example 18.17], below 1 µM. In turn, `CN1CCC(COc2ccc(NCc3ccc4c(N)nccc4c3)cc2)CC1` [Example 18.18, 6-(((4-((1-Methylpiperidin-4-yl)methoxy)phenyl)amino)methyl)isoquinolin-1-amine] registered an IC50 against Human Factor XIIa below 1 µM. Turning to `Nc1nccc2cc(CNc3ccc(COC4CCNCC4)cn3)ccc12` [Example 18.19, 6-(((5-((Piperidin-4-yloxy)methyl)pyridin-2-yl)amino)methyl)isoquinolin-1-amine], on Human Factor XIIa, the IC50 was in the range of 3 to 10 µM. In turn, `CN1CCC(CNC(=O)c2cccc(NCc3ccc4c(N)nccc4c3)n2)CC1` [Example 18.201, 6-(((1-Aminoisoquinolin-6-yl)methyl)amino)-N-((1-methylpiperidin-4-yl)methyl)picolinamide] registered an IC50 at Human Factor XIIa of 3 to 10 µM. Consider `CN1CCC(Oc2ccnc(NCc3ccc4c(N)nccc4c3)c2)CC1` [Example 18.202, 6-(((4-((1-methylpiperidin-4-yl)oxy)pyridin-2-yl)amino)methyl)isoquinolin-1-amine], for which the IC50 on Human FXIa was above 40 µM; at Human Factor XIIa, below 1 µM. As for `CN1CCC(Oc2cccc(NCc3ccc4c(N)nccc4c3)n2)CC1` [Example 18.203], on Human Factor XIIa, the IC50 was 10 to 40 µM. In the case of `CN1CCC(NC(=O)c2ccnc(NCc3ccc4c(N)nccc4c3)c2)CC1` [Example 18.204, 2-(((1-Aminoisoquinolin-6-yl)methyl)amino)-N-(1-methylpiperidin-4-yl)isonicotinamide], the IC50 against Human Factor XIIa is 3 to 10 µM. Still for that read-out and setting: for `CN1CCN(C(=O)c2ccnc(NCc3ccc4c(N)nccc4c3)c2)CC1` [Example 18.205] the value was 10 to 40 µM; for `CN1CCC(OCc2ccnc(NCc3ccc4c(N)nccc4c3)c2)CC1` [Example 18.206, 6-(((4-(((1-Methylpiperidin-4-yl)oxy)methyl)pyridin-2-yl)amino)methyl)isoquinolin-1-amine], 1 to 3 µM. Same read-out and setting: with `CN1CCC(Oc2cncc(NCc3ccc4c(N)nccc4c3)n2)CC1` [Example 18.207, 6-(((6-((1-Methylpiperidin-4-yl)oxy)pyrazin-2-yl)amino)methyl)isoquinolin-1-amine] the figure was 10 to 40 µM; with `Nc1nccc2cc(CNc3cc(OCCN4CCOCC4)ccn3)ccc12` [Example 18.208], 10 to 40 µM.

`CN1CCC(Oc2cc(NCc3ccc4c(N)nccc4c3)ncn2)CC1` [Example 18.209]: the IC50 on Human Factor XIIa was 1 to 3 µM. Regarding `CN1CCCC(Oc2ccnc(NCc3ccc4c(N)nccc4c3)c2)C1` (stereo not shown) [Example 18.210], the IC50 on Human Factor XIIa is 1 to 3 µM. In turn, `CN1CCC(Oc2cccc(NCc3ccc4c(N)nccc4c3)c2)CC1` [Example 18.211] came in with an IC50 against Human Factor XIIa of 1 to 3 µM. Still for that read-out and setting: with `CN1CCC(Oc2cncc(NCc3ccc4c(N)nccc4c3)c2)CC1` [Example 18.212] the figure was 1 to 3 µM; with `Nc1nccc2cc(CNc3cc(OC4CCNCC4)ccn3)ccc12` [Example 18.213, 6-(((4-(Piperidin-4-yloxy)pyridin-2-yl)amino)methyl)isoquinolin-1-amine], 3 to 10 µM.
